Legend:
Details in all cases: incubation time: 72 h
[1] = system: BT-474; assay: normalised viability (% of control), CellTiter-Blue; higher = more viable cells (about 100 = DMSO control)
Experimental: (§1)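 DSRT, CellTiter-Blue viability, 72 h incubation. Signal is normalised to DMSO and benzethonium chloride controls. Value is the normalised response at dose 3.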

[2] = system: DU-4475; assay: as above
Experimental: as §1

[3] = system: HCC1599; assay: as above
Experimental: as §1

[4] = system: MDA-MB-453; assay: as above
Experimental: as §1

[5] = system: MFM-223; assay: as above
Experimental: as §1

[6] = system: SK-BR-3; assay: as above
Experimental: as §1

[7] = system: BT-474; assay: normalised viability (% of control), CellTiter-Blue; higher = more viable cells (about 100 = DMSO control); remark: listed apart in the source
Outline: (§2)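 After 72 h on compound-loaded 384-well plates, breast cancer cell lines received 2.5 µl CellTiter-Blue reagent for 2 h at 37 °C. Fluorescence at 560/590 nm was scaled per plate so that vehicle was 100 and a positive kill control was 0. The value stands for normalised viability at a single listed concentration of the series.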

[8] = system: BT-549; assay: as above
Outline: as §2

[9] = system: CAL-120; assay: as above
Outline: as §2

[10] = system: CAL-148; assay: as above
Outline: as §2

[11] = system: CAL-51; assay: as above
Outline: as §2

[12] = system: CAL-85-1; assay: as above
Outline: as §2

[13] = system: DU-4475; assay: as above; remark: listed apart in the source
Outline: as §2

[14] = system: HCC1143; assay: as above
Outline: as §2

[15] = system: HCC1599; assay: as above; remark: listed apart in the source
Outline: as §2

[16] = system: HCC1937; assay: as above
Outline: as §2

[17] = system: HDQ-P1; assay: as above
Outline: as §2

[18] = system: Hs578T; assay: as above
Outline: as §2

[19] = system: MDA-MB-231; assay: as above
Outline: as §2

[20] = system: MDA-MB-436; assay: as above
Outline: as §2

[21] = system: MDA-MB-453; assay: as above; remark: listed apart in the source
Outline: as §2

[22] = system: MDA-MB-468; assay: as above
Outline: as §2

[23] = system: MFM-223; assay: as above; remark: listed apart in the source
Outline: as §2

[24] = system: SK-BR-3; assay: as above; remark: listed apart in the source
Outline: as §2

[25] = system: Hs578T; assay: drug sensitivity score (DSS), CellTox Green (DSS (AUC-based score)); higher = stronger drug effect (viability inhibition or cytotoxicity); extreme values may be limits of the assay
Outline: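 Using 20 µl of cell suspension per well, breast cancer cell lines were seeded into 384-well plates pre-loaded with compound at 5 concentrations in 10-fold steps across a compound-specific 10,000-fold range. Incubation lasted 72 h, after which CellTox Green fluorescence at 485/520 nm and then CellTiter-Glo luminescence, following 10 min at room temperature, were recorded. Each plate was normalised to 0.1 % DMSO and a positive kill control before the drug sensitivity score was derived from the area under the fitted dose-response curve.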

Cc1ccc(F)c(NC(=O)Nc2ccc(-c3cccc4[nH]nc(N)c34)cc2)c1 [Linifanib]
Details	normalised viability [%]
[1], 10 nM	111
[2], 1 nM	96.5
[3], 10 nM	108
[4], 1 nM	106
[5], 10 nM	102
[6], 10 nM	119
[7], 1 nM	113
[7], 100 nM	108
[7], 1000 nM	123
[8], 1 nM	91.5
[8], 100 nM	96
[8], 1000 nM	97.5
[9], 1 nM	90.8
[9], 100 nM	91.2
[9], 1000 nM	109
[10], 0.3 nM	93
[10], 3 nM	96.3
[10], 10 nM	94.4
[11], 0.3 nM	106
[11], 3 nM	105
[11], 10 nM	107
[12], 0.3 nM	93.9
[12], 3 nM	87.9
[12], 10 nM	98.8
[13], 0.3 nM	103
[13], 3 nM	93.6
[13], 10 nM	108
[14], 1 nM	112
[14], 100 nM	89
[14], 1000 nM	93.9
[15], 1 nM	109
[15], 100 nM	108
[15], 1000 nM	109
[16], 1 nM	147
[16], 100 nM	93.6
[16], 1000 nM	111
[17], 0.3 nM	107
[17], 3 nM	111
[17], 10 nM	103
[18], 1 nM	114
[18], 100 nM	101
[18], 1000 nM	91.3
[19], 1 nM	115
[19], 100 nM	101
[19], 1000 nM	109
[20], 1 nM	108
[20], 100 nM	110
[20], 1000 nM	120
[21], 0.3 nM	111
[21], 3 nM	111
[21], 10 nM	104
[22], 1 nM	182
[22], 100 nM	111
[22], 1000 nM	104
[23], 1 nM	101
[23], 100 nM	96.6
[23], 1000 nM	98.4
[24], 1 nM	117
[24], 100 nM	112
[24], 1000 nM	123

Details	drug sensitivity score
[25]	0

C=CCNC1=C2C[C@@H](C)C[C@H](OC)[C@H](O)[C@@H](C)/C=C(\C)[C@H](OC(N)=O)[C@@H](OC)/C=C\C=C(/C)C(=O)NC(=CC1=O)C2=O [Tanespimycin]
Details	normalised viability [%]
[1], 100 nM	35.3
[2], 10 nM	106
[3], 100 nM	61.2
[4], 10 nM	81
[5], 100 nM	29.2
[6], 100 nM	16.5
[7], 10 nM	104
[7], 1000 nM	28.4
[7], 10000 nM	23.9
[8], 10 nM	81.5
[8], 1000 nM	31
[8], 10000 nM	20.4
[9], 10 nM	74.2
[9], 1000 nM	24.2
[9], 10000 nM	16.4
[10], 3 nM	97.8
[10], 30 nM	89.7
[10], 100 nM	38.5
[11], 3 nM	118
[11], 30 nM	108
[11], 100 nM	81.9
[12], 3 nM	91.5
[12], 30 nM	86.5
[12], 100 nM	82.4
[13], 3 nM	104
[13], 30 nM	83.3
[13], 100 nM	2.97
[14], 10 nM	64.6
[14], 1000 nM	30.2
[14], 10000 nM	29.3
[15], 10 nM	123
[15], 1000 nM	42.7
[15], 10000 nM	31.3
[16], 10 nM	140
[16], 1000 nM	25.8
[16], 10000 nM	27.1
[17], 3 nM	92.6
[17], 30 nM	85.9
[17], 100 nM	58.6
[18], 10 nM	77.1
[18], 1000 nM	35.8
[18], 10000 nM	24.9
[19], 10 nM	92.5
[19], 1000 nM	49.4
[19], 10000 nM	28.1
[20], 10 nM	88.8
[20], 1000 nM	24.9
[20], 10000 nM	17.5
[21], 3 nM	121
[21], 30 nM	11.4
[21], 100 nM	7.8
[22], 10 nM	113
[22], 1000 nM	65.5
[22], 10000 nM	81.3
[23], 10 nM	73.6
[23], 1000 nM	23.9
[23], 10000 nM	17.6
[24], 10 nM	73.6
[24], 1000 nM	17.4
[24], 10000 nM	13

Details	drug sensitivity score
[25]	1.53

CC[C@]1(O)C[C@@H]2CN(CCc3c([nH]c4ccccc34)[C@@](C(=O)OC)(c3cc4c(cc3OC)N(C)[C@H]3[C@@](O)(C(=O)OC)[C@H](OC(C)=O)[C@]5(CC)C=CCN6CC[C@]43[C@@H]65)C2)C1 [Vinblastine]
Details	normalised viability [%]
[1], 10 nM	49.7
[2], 1 nM	102
[3], 10 nM	107
[4], 1 nM	98.4
[5], 10 nM	76.7
[6], 10 nM	13
[7], 1 nM	51.8
[7], 100 nM	54.2
[7], 1000 nM	52.7
[8], 1 nM	90.7
[8], 100 nM	19.4
[8], 1000 nM	17
[9], 1 nM	35.4
[9], 100 nM	18.5
[9], 1000 nM	20.1
[10], 0.3 nM	76.8
[10], 3 nM	78.8
[10], 10 nM	79
[11], 0.3 nM	108
[11], 3 nM	106
[11], 10 nM	96.4
[12], 0.3 nM	89.9
[12], 3 nM	94.9
[12], 10 nM	48.3
[13], 0.3 nM	105
[13], 3 nM	96.5
[13], 10 nM	82.9
[14], 1 nM	77.3
[14], 100 nM	42.7
[14], 1000 nM	29.5
[15], 1 nM	106
[15], 100 nM	56.9
[15], 1000 nM	45.5
[16], 1 nM	46
[16], 100 nM	18.7
[16], 1000 nM	15.6
[17], 0.3 nM	92.6
[17], 3 nM	87.3
[17], 10 nM	47.5
[18], 1 nM	70.4
[18], 100 nM	14.8
[18], 1000 nM	13.2
[19], 1 nM	70
[19], 100 nM	13.4
[19], 1000 nM	12
[20], 1 nM	93
[20], 100 nM	28.8
[20], 1000 nM	37
[21], 0.3 nM	115
[21], 3 nM	99.8
[21], 10 nM	36.8
[22], 1 nM	83.8
[22], 100 nM	36.6
[22], 1000 nM	41.8
[23], 1 nM	96.7
[23], 100 nM	43.9
[23], 1000 nM	24.9
[24], 1 nM	27.6
[24], 100 nM	16.5
[24], 1000 nM	16.4

Details	drug sensitivity score
[25]	21.4

Source: the supplement of paper PMC4862054
